For series [1] the following is noted: 45 mg/kg, 72 hours; cited from earlier work.
For series [2], the system named is sheep liver glutathione-S-arene oxide transferase. Description: Km's for conjugation of GSH and naphthalene oxide, partially purified transferase. Format: in vitro ADME. Conditions: one-half of value for racemic naphthalene oxide, pH 7.4, read-out: Km for 1R, 2S-- or 1S, 2R-- NO (conjugation with GSH). The source says: (§1) The rate of reaction of naphthalene oxide with GSH is assumed to be of the form V=Vmax*{1GSH/(GSH+Kml)}*{NO/(NO+Km2)}. […] Work with partially purified sheep liver glutathione-S-arene oxide transferase has provided Km's for conjugation of GSH and racemic naphthalene oxide at pH 7.4 (Hayakawa, T., LeMahieu, R. A., and Udenfriend, S., "Studies on Glutathione-S-arene Oxide Transferase--a Sensitive Assay", Arch. Biochem. Biophys. 162: 223-230 (1974), which is hereby incorporated by reference). Individual glutathione-S-transferase isozymes are enantioselective with respect to naphthalene oxide (O'Brien, K. A. F., Suverkropp, C., Kanekal, S., Plopper, C. G., and Buckpitt, A. R., "Tolerance to Multiple Doses of the Pulmonary Toxicant, Naphthalene", Toxicol. Appl. Pharmacol. 99: 487-500 (1989), which is hereby incorporated by reference), but GSH conjugation proceeds equally fast with 1R, 2S- and 1S, 2R-naphthalene oxide (Buonarati, M., Jones, A. D., and Buckpitt, A., "In vivo Metabolism of Isomeric Naphthalene Oxide Glutathione Conjugates", Drug Metab. Dispos. 18: 183-189 (1990), which is hereby incorporated by reference). Therefore Vmax's for conjugation with each enantiomer are assumed equal, and the Km for reaction with each enantiomer is assumed to be one-half of the value reported for racemic naphthalene oxide.

For another series, the system named is H4IIE cells. In words: Viability of H4IIE hepatoma cells after 24 hr BrdU exposure and 30 sec UV light in the multicompartmental cell culture system (trypan blue). Format: cell-based, rat. The procedure: A rat hepatoma cell line, H4IIE obtained from the American Type Culture Collection (Bethesda, Md.), was cultured in RPMI Medium 1640 with 5 percent fetal calf serum, L-glutamine and antibiotics (penicillin G, streptomycin and amphotericin B) (Gibco Island, N.Y.). Cells were seeded 24 hr before the experiment. Attachment of H4IIE cells occurs several hours following seeding. Density was approximately 20 percent of confluence at the start of the experiment.
The multicompartmental cell culture system ("MCCS") of the present invention was used to expose both normal and transformed cells to an antineoplastic compound simultaneously. The volume of distribution of the system was 500 mL. Each compartment (T-flask, Becton Dickinson, Lincoln Park, N.J.) contained 75 mL of cell culture medium (RPMI 1640 as previously described). The flow rate was set at 5 mL per min. and maintained by means of a peristaltic pump (Millipore, Bedford, Mass.). The entire system was placed inside a Forma Scientific water-jacketed incubator (Fisher Scientific, Philadelphia, Pa.) set at 37° C. with 5 percent CO2. […]
(§2) Following the 24 hr. exposure period, both human lymphocytes and rat hepatoma cells were exposed to a UV light source for 30 sec. Viable cells were determined and enumerated by trypan blue dye exclusion on a hemacytometer immediately following UV exposure.

Another series relates to human lymphocytes. In words: Viability of human lymphocytes after 24 hr BrdU exposure and 30 sec UV light in the multicompartmental cell culture system (trypan blue). As to conditions: 750 mg BrdU in 500 mL system. Format: cell-based. Here is the method:
Approximately 14 mL of freshly drawn human blood were collected into EDTA tubes (Becton Dickinson, Lincoln Park, N.J.). To this blood sample was added 4 mL of Hanks balanced salt solution. Two and one-half mL of the blood solution was layered onto 3 mL of ficoll (Pharmacia, Piscataway, N.J.) and centrifuged at 1500 rpm for 20 min at ambient temperature. The pellet was washed in an equal volume of Hanks balanced salt solution and recentrifuged. All lymphocytes collected from the 14 mL blood sample were seeded into 100 mL of RPMI 1640 (Gibco, Grand Island, N.Y.) and placed in a Forma Scientific water-jacketed incubator (Fisher Scientific, Philadelphia, Pa.) set at 37° C. with 5 percent CO2 overnight.
The multicompartmental cell culture system ("MCCS") of the present invention was used to expose both normal and transformed cells to an antineoplastic compound simultaneously. The volume of distribution of the system was 500 mL. Each compartment (T-flask, Becton Dickinson, Lincoln Park, N.J.) contained 75 mL of cell culture medium (RPMI 1640 as previously described). […]
as §2

Series [3] deals with sheep liver glutathione-S-arene oxide transferase. As to conditions: read-out: Km for GSH, pH 7.4, cited from earlier work.
For series [4] the following is noted: non-enzymatic; cited from earlier work.
Series [5] has as its system liver microsomes. In words: Conjugation of naphthalene oxide with GSH, rat liver. Format: in vitro ADME. On the set-up: unit not given here. Conditions: assumed equal for each enantiomer. An excerpt:
(§3) Determination of Vmax's and Km's for naphthalene oxide production and Vmax's for GSH conjugates and dihydrodiol production in rat microsomes were done in the same way as for the mouse. Sources of data were Buckpitt, et al, 1987, supra, Hesse, S. and Mezger, M., "Involvement of Phenolic Metabolites in the Irreversible Protein-binding of Aromatic Hydrocarbons: Reactive Metabolites of [^14 C]-naphthalene and [^14 C] 1-naphthol Formed by Rat Liver Microsomas", Mol. Pharmacol. 16: 667-675 (1979) which is hereby incorporated by reference, O'Brien et al., 1985, supra, van Bladeren et al., 1985, supra, and Yost, G. S., Buckpitt, A. R., Roth, R. A., and McLemore, T. L., "Mechanisms of Lung Injury by Systematically Administered Chemicals", Toxicol. Appl. Pharmacol. 101: 179-195 (1989), which is hereby incorporated by reference.

Series [6] relates to lung microsomes. Description: Conjugation of naphthalene oxide with GSH, rat lung. Format: in vitro ADME. Details: unit not given here. As to conditions: assumed equal for each enantiomer.
Description: as §3

In series [7] the test system is lung microsomes and cytosolic protein. Description: Conjugation of naphthalene oxide with GSH, mouse lung. Format: in vitro ADME. As to conditions: assumed equal for each enantiomer.
Description: as §1

In series [8] the test system is liver microsomes and cytosolic protein. In words: Conjugation of naphthalene oxide with GSH, mouse liver. Conditions: assumed equal for each enantiomer. Format: in vitro ADME.
Description: as §1

In the next series the test system is protein. In words: Covalent binding of naphthalene oxide to protein in hepatocytes. Format: in vitro ADME. As to conditions: non-enzymatic; from hepatocyte incubations. Here is the method:
The first order rate constant for non-enzymatic rearrangement of naphthalene oxide to 1-naphthol has been reported (van Bladeran et al., 1985, supra). The rate of covalent binding was determined from data reported for incubations of hepatocytes with naphthalene oxide (Buonarati et al., 1989, supra).

The test system of a further series is liver GSH. As to conditions: 48 hours after xylene; cited from earlier work.
For series [9], the system named is liver microsomes. As to conditions: 48 hours after xylene; cited from earlier work.
Series [10] deals with lung microsomes. As to conditions: 48 hours after xylene; cited from earlier work.

Where two headings read alike, the source gives them in different places.

As for `Oc1cccc2ccccc12` [1 naphthol, 1-Naphthol], the “percent of dose recovered” value in [1] was “Eighty-one”.
Broadly, the Km is the concentration of substrate that gives half-maximal velocity. Turning to `C1=C[C@@H]2O[C@@H]2c2ccccc21` [1R, 2S NO, 1R, 2S-naphthalene oxide], the Km in series [2] (Mouse) and in series [2] (Rat) was 50 µM in each case.
In the case of `C1=C[C@H]2O[C@H]2c2ccccc21` [1S, 2R NO, 1S, 2R-naphthalene oxide], the Km in series [2] (Mouse) and in [2] (Rat) was 50 µM each time.
In the case of `O=c1[nH]c(=O)n([C@H]2C[C@H](O)[C@@H](CO)O2)cc1Br` [BrdU, 5-bromo-2'-deoxyuridine], in the series with H4IIE cells (750 mg BrdU in 500 mL system, 30 sec UV), the “viable H4IIE cells following UV exposure” value was “fifty-three”. Besides, the “uptake of BrdU by hepatoma cells versus lymphocytes” value in the series on H4IIE cells (MCCS, inferred from killing) was “greater uptake of the BrdU by the hepatoma cells than the lymphocytes”. In the series with human lymphocytes, the “viable human lymphocytes following UV exposure” value was “Eighty-nine”.
`N[C@@H](CCC(=O)N[C@@H](CS)C(=O)NCC(=O)O)C(=O)O` [GSH, glutathione]: the Michaelis constant (Km) in series [3] (Mouse) and in [3] (Rat) was 3300 µM each time.
For `C1=CC2OC2c2ccccc21` (stereo not shown) [NO, naphthalene oxide], in series [4], the “First order rate constant for rearrangement to 1-napthol” value is 0.25 min⁻¹. For the same compound, the “Vmax, conjugation with GSH” value in the series with liver microsomes [5] is 500; in the series on lung microsomes [6], 400; in series [7], 22.5 nmol/mg/min; in [8] it was 150 nmol/mg/min. The compound further returned a Binding to protein in the series with protein of 0.2 pmole/mg/min/μM NO.
Regarding xylene, the GSH levels entry with liver GSH is listed as “return to normal”. Also, the “metabolism of naphthalene by liver microsomes” value with liver microsomes [9] is reported as “return to normal”. Moreover, the “metabolism of naphthalene by lung microsomes, percent of the normal rate” value in the series with lung microsomes [10] is reported as 56%.

These data come from patent publication US5612188A, “Automated, multicompartmental cell culture system” (Cornell Research Foundation, Inc., priority 1994, dated 1997).
